Experimental findings from PMC7582770, “Synthesis of “All-Cis” Trihydroxypiperidines from a Carbohydrate-Derived Ketone: Hints for the Design of New β-Gal and GCase Inhibitors” (Molecules, 2020) are described below.

Changes are numbered by the printed parent chain. “Also recorded” adds a separate entry of the source.

The target in assay [1] is T1, human lysosomal β-glucosidase (GCase) (Homo sapiens, UniProt P04062).
T1 construct: in leukocytes isolated from healthy donors (controls); endogenous in cells; host or cells: human leukocytes from healthy donors, disrupted by sonication (crude homogenate)
T1 sequence (P04062 40-536): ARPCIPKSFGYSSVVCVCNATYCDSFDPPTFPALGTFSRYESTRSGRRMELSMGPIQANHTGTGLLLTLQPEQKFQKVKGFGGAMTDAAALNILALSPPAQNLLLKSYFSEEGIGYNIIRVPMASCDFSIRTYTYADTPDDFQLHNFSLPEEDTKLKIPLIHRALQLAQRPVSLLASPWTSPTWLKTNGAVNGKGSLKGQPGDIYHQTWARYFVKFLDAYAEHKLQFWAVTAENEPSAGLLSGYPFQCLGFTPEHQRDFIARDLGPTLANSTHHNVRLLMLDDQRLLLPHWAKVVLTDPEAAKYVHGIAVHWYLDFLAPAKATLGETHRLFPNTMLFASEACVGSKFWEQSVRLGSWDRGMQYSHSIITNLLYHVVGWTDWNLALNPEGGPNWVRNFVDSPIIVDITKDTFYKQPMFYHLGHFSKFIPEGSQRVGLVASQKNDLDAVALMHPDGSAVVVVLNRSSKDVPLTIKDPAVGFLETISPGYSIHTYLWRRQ
Nature of the assay: GCase inhibition in human leukocyte homogenates. Format: biochemical. The note with it: human leukocytes extracts; for inhibition at 1000 µM / GCase Inhibition (%): compounds 1 mM; for IC50: 4-methylumbelliferyl-β-D-glucoside 3.33 mM. As to the method: The new compounds were screened at 1 mM concentration towards β-galactosidase (β-Gal) and β-glucosidase (GCase) in leukocytes isolated from healthy donors (controls). Isolated leukocytes were disrupted by sonication, and a Micro BCA Protein Assay Kit (Sigma–Aldrich, St. Louis, MO, USA) was used to determine the total protein amount for the enzymatic assay, according to the manufacturer’s instructions.
GCase activity was measured in a flat-bottomed 96-well plate. Compound solution (3 µL), 4.29 µg/µL leukocytes homogenate (7 µL), and substrate 4-methylumbelliferyl-β-D-glucoside (3.33 mM, 20 µL, Sigma–Aldrich Chemie Gmbh, Munich, Germany)) in citrate/phosphate buffer (0.1:0.2, M/M, pH 5.8) containing sodium taurocholate (0.3%) and Triton X-100 (0.15%) at 37 °C were incubated for 1 h. The reaction was stopped by addition of sodium carbonate (200 µL; 0.5 M, pH 10.7) containing Triton X-100 (0.0025%), and the fluorescence of 4-methylumbelliferone released by β-glucosidase activity was measured in SpectraMax M2 Microplate Reader (λex = 365 nm and λem = 435 nm; Molecular Devices LLC, San Jose, CA, US). Percentage GCase inhibition is given with respect to the control (without compound). Data are mean SD (n = 3). For compounds showing GCase inhibitory activity higher than 80% at 1 mM concentration, the IC50 values were determined by measuring the initial hydrolysis rate with 4-methylumbelliferyl-β-D-glucoside (3.33 mM). Data obtained were fitted by using the appropriate equation (for more details, see the Supplementary Materials).
IC50 for compounds 9, 10, 12 and 21 towards human lysosomal β-glucosidase The IC50 values of inhibitors against β-glucosidase were determined by measuring the initial hydrolysis rate with 4-methylumbelliferyl-β-D-glucoside (3.33 mM). Data obtained were fitted to the following equation using the Origin Microcal program. where Vi/Vo, represent the ratio between the activity measured in the presence of the inhibitor (Vi) and the activity of the control without the inhibitor (V0), “x” the inhibitor concentration, Max and Min, the maximal and minimal enzymatic activity observed, respectively.
Figure S48: IC of compound 9 towards GCase
Figure S49: IC50 of compound 10 towards GCase
(also on this page, place not known: Min x MinMax Vo Vi slope + […] […] […] […] […] […]+ −= 1 be tween (V i) (V 0), IC50) […]

The target in assay [2] is T2, GCase in fibroblasts with the N370S/RecNcil mutation (Homo sapiens, UniProt P04062, N409S).
T2 construct: Fibroblasts with the N370S/RecNcil mutation from patients with Gaucher disease; host or cells: human Gaucher patient fibroblasts, N370S/RecNciI
T2 sequence (P04062 40-536 N409S): T1 sequence (P04062 40-536) with N370S
Nature of the assay: Pharmacological chaperoning activity (GCase activity in Gaucher patient fibroblasts). In kind it is cell-based. To be noted: six concentrations (10 nM to 100 µM), 4 days incubation. On the procedure:
Fibroblasts with the N370S/RecNcil mutation from patients with Gaucher disease were obtained from the “Cell line and DNA Biobank from patients affected by Genetic Diseases” (Gaslini Hospital, Genova, Italy). Fibroblasts cells (15.0 × 10^4) were seeded in T25 flasks with DMEM supplemented with fetal bovine serum (10%), penicillin/streptomycin (1%), and glutamine (1%) and incubated at 37 °C with 5% CO2 for 24 h. The medium was removed, and fresh medium containing compound 10 was added to the cells and left for 4 days. The medium was removed, and the cells were washed with PBS and detached with trypsin to obtain cell pellets, which were washed four times with PBS, frozen, and lysed by sonication in water. Enzyme activity was measured as reported above. Reported data are mean S.D. (n = 2).
Pharmacological chaperoning activity
Fibroblasts with the N370S/RecNcil mutation from Gaucher disease patients were obtained from the “Cell line and DNA Biobank from patients affected by Genetic Diseases” (Gaslini Hospital, Genova, Italy). Fibroblasts cells (20.0 x 104) were seeded in T25 flasks with DMEM supplemented with fetal bovine serum (10%), penicillin/streptomycin (1%), and glutamine (1%) and incubated at 37 °C with 5% CO2 for 24 h. The medium was removed, and fresh medium containing the compounds 9, 10 or 12 at different concentrations (10 nM, 100 nM, 1 µM, 10 µM, 50 µM, 100 µM) was added to the cells and left for 4 days. The medium was removed, and the cells were washed with PBS and detached with trypsin to obtain cell pellets, which were washed four times with PBS, frozen and lysed by sonication in water. Enzyme activity was measured as reported above. Reported data are mean S.D. (n=2).
Figure S52: GCase activity in human fibroblasts derived from GD patients bearing N370/RecNcil mutations in the presence of compound 9.
Figure S53: GCase activity in human fibroblasts derived from GD patients bearing N370/RecNcil mutations in the presence of compound 10. The flasks containing cells incubated with 100 µM and 50 µM […]

As a reminder, the inhibition is the share of the control response that was lost under treatment. Read a low inhibition as a response near the control. Broadly, the IC50 is the concentration needed to halve the response being measured. For `CCCCCCCC[C@]1(O)CNC[C@@H](O)[C@H]1O` [compound 12, (3S, 4R, 5R)-3,4,5-Trihydroxy-3-Octyl-Piperidine], in assay [1], the inhibition at 1000 µM was > 90% and half-maximal inhibition (IC50) required 60 ± 23 µM. In assay [1] (listed as C00012), the “GCase Inhibition (%)” value was 93%. In assay [2], the “GCase enzyme rescue (chaperoning activity)” value (shortened to “GCase enzyme rescue”) is listed as “did not impart any enzyme rescue; also recorded: None of the compounds gave enzyme rescue”.
Consider `CCCCCCCCCO[C@@H]1CNC[C@@H](O)[C@H]1O` [compound 21, (3R, 4R, 5R)-4,5-Dihydroxy-3-(Nonyloxy) Piperidine], for which, in assay [1], the inhibition at 1000 µM was > 90% and the IC50 is 130 ± 13 µM. For the same compound, the “GCase Inhibition (%)” value in assay [1] (listed as C00016) stood at 100%.
With `CCCCCCCCCO[C@H]1CNC[C@@H](O)[C@H]1O` [compound 9, (3S, 4R, 5R)-4,5-Dihydroxy-3-(Nonyloxy) Piperidine], in assay [1], the inhibition at 1000 µM is > 90% and 12 ± 6 µM corresponded to half-maximal inhibition (IC50). Besides, the “GCase Inhibition (%)” value in assay [1] (listed as C00009) is recorded as 98%. In assay [2], the “GCase enzyme rescue” value was “did not impart any enzyme rescue; also recorded: None of the compounds gave enzyme rescue”.
For `CCCCCCCCCCCCN[C@H]1CNC[C@@H](O)[C@H]1O` [compound 10, (3R, 4S, 5S)-3,4-Dihydroxy-5-(Dodecylamino) Piperidine], in assay [1], the inhibition at 1000 µM is > 90% and the concentration for half-maximal inhibition (IC50) was found to be 6.4 ± 0.7 µM. Further, the “GCase Inhibition (%)” value in assay [1] (listed as C00010) was determined as 100%. The “GCase enzyme rescue” value in assay [2] is on record as “failed to rescue the enzyme activity; also recorded: did not impart any enzyme rescue; also recorded: None of the compounds gave enzyme rescue”.
